Laboratory results as given in patent US11109593B2, “Isoxazolin-5-one derivative and herbicide containing same as active ingredient” (HOKKO CHEMICAL INDUSTRY CO., LTD., priority 2017, dated 2021).

Experiments:
Assay type in all cases: in vivo
Chenopodium album [1] = assay: Test Example 4: herbicidal effect test by treatment of leave and stem in dry field farming (seven days after seeding); conditions: 120 g/10a active ingredient; emulsion sprayed seven days after seeding; evaluated 14 days after treatment
Summary of the method: (§1)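 Weeds were seeded at 20 seeds per species into the top 1 cm of alluvial upland soil in pots, then sprayed 7 days after seeding with water-diluted emulsifiable concentrate at 100 L/10 a, giving 120 g active ingredient/10 a. Duplicate pots; herbicidal rate (%) was 14 days post-treatment, from dry weight versus untreated.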

southern crabgrass [2] = assay: as above; conditions: 120 g/10a active ingredient; emulsion sprayed seven days after seeding; evaluated 14 days after treatment
Summary of the method: as §1

Echinochloa crus-galli [3] = assay: as above; conditions: 120 g/10a active ingredient; emulsion sprayed seven days after seeding; evaluated 14 days after treatment
Summary of the method: as §1

Amaranthus viridis [4] = assay: as above; conditions: 120 g/10a active ingredient; emulsion sprayed seven days after seeding; evaluated 14 days after treatment
Summary of the method: as §1

[5] = system: broad leaf weeds (Lindernia pyxidaria and Monochoria vaginalis); assay: Test Example 2: herbicidal effect test by treatment during growing period in paddy rice cultivation (seven days after seeding); conditions: 120 g/10a active ingredient, assessed 14 days after treatment, dry weight vs untreated area
Summary of the method: (§2)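 Herbicidal rate = (1 − treated/untreated mean dry weight) × 100, scored 14 days after application, two replicates per rate. Treatment: diluted emulsion dropped onto paddy water seven days after sowing, 120 g active ingredient per 10 ares, in a glass greenhouse.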

Scirpus juncoides [6] = assay: as above; conditions: 120 g/10a active ingredient, assessed 14 days after treatment, dry weight vs untreated area
Summary of the method: as §2

Echinochloa crus-galli [7] = assay: as above; conditions: 120 g/10a active ingredient, assessed 14 days after treatment, dry weight vs untreated area
Summary of the method: as §2

Chenopodium album [8] = assay: Test Example 3: herbicidal effect test by treatment of dry field farming soil (one day after seeding); conditions: 120 g/10a active ingredient, evaluated 14 days after treatment
Summary of the method: (§3)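 Seeds (20 each) mixed into top 1 cm of alluvium in pots, surface pressed. One day later, diluted emulsion sprayed onto soil, 100 L/10 a, 120 g a.i./10 a. Dry weight at 14 d vs untreated gave % herbicidal rate; n=2.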

southern crabgrass [9] = assay: as above; conditions: 120 g/10a active ingredient, evaluated 14 days after treatment
Summary of the method: as §3

Echinochloa crus-galli [10] = assay: as above; conditions: 120 g/10a active ingredient, evaluated 14 days after treatment
Summary of the method: as §3

Amaranthus viridis [11] = assay: as above; conditions: 120 g/10a active ingredient, evaluated 14 days after treatment
Summary of the method: as §3

[12] = system: broad leaf weeds (Lindernia pyxidaria and Monochoria vaginalis); assay: Test Example 1: herbicidal effect test by treatment of rice paddy soil (immediately after seeding); conditions: 120 g/10a active ingredient, dry weight vs untreated area, 14 days after treatment
Summary of the method: (§4)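 Application occurs immediately after seeding, with diluted emulsion added to paddy water (about 3 cm deep) over puddled, fertilized soil at 120 g active ingredient per 10 ares. Herbicidal rate is calculated from mean dry weight against untreated controls 14 days later.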

Scirpus juncoides [13] = assay: as above; conditions: 120 g/10a active ingredient, dry weight vs untreated area, 14 days after treatment
Summary of the method: as §4

Echinochloa crus-galli [14] = assay: as above; conditions: 120 g/10a active ingredient, dry weight vs untreated area, 14 days after treatment
Summary of the method: as §4

Row | Compound | herbicidal effect (herbicidal rate), Chenopodium album (Chenopodium album [1]) | herbicidal effect (herbicidal rate), southern crabgrass (southern crabgrass [2]) | herbicidal effect (herbicidal rate), Echinochloa crus-galli (Echinochloa crus-galli [3]) | herbicidal effect (herbicidal rate), Amaranthus viridis (Amaranthus viridis [4]) | Herbicidal rate (%) Lindernia pyxidaria [5] | Herbicidal rate (%) Monochoria vaginalis [5] | Herbicidal rate (%) Scirpus juncoides (Scirpus juncoides [6]) | Herbicidal rate (%) Echinochloa crus-galli (Echinochloa crus-galli [7]) | herbicidal rate, Chenopodium album (Chenopodium album [8]) | herbicidal rate, southern crabgrass (southern crabgrass [9]) | herbicidal rate, Echinochloa crus-galli (Echinochloa crus-galli [10]) | herbicidal rate, Amaranthus viridis (Amaranthus viridis [11]) | Herbicidal rate (%) Lindernia pyxidaria [12] | Herbicidal rate (%) Monochoria vaginalis [12] | Herbicidal rate (%) Scirpus juncoides (Scirpus juncoides [13]) | Herbicidal rate (%) Echinochloa crus-galli (Echinochloa crus-galli [14])
1 | Cc1c(Cc2ccccc2N(S(C)(=O)=O)S(=O)(=O)C(F)(F)F)c(=O)on1C(C)C [Compound 1-888] | 40% | 40% | 80% | 40% | 80% | 100% | 90% | 90% | 60% | 70% | 90% | 40% | 100% | 90% | 90% | 100%
2 | Cc1ccc(C(C)n2oc(=O)c(Cc3ccccc3NS(=O)(=O)C(F)(F)F)c2C)cc1 (stereo not shown) [Compound 1-208] | 40% | 0% | 90% | 40% | 60% | 90% | 80% | 90% | 40% | 50% | 100% | 40% | 80% | 90% | 90% | 90%
3 | CCC(C)Cn1oc(=O)c(Cc2ccccc2NS(=O)(=O)C(F)(F)F)c1C (stereo not shown) [Compound 1-112] | 0% | 50% | 90% | 40% | 80% | 80% | 90% | 90% | 80% | 90% | 90% | 60% | 90% | 90% | 90% | 100%
4 | CCNC(=O)N(c1ccccc1Cc1c(C)n(C(C)c2ccccc2)oc1=O)S(=O)(=O)C(F)(F)F (stereo not shown) [Compound 1-874] | 40% | 90% | 90% | 40% | 90% | 90% | 90% | 90% | 90% | 90% | 90% | 90% | 90% | 90% | 90% | 90%
5 | Cc1c(Cc2ccccc2N(S(=O)(=O)C(F)(F)F)S(=O)(=O)C(F)(F)F)c(=O)on1C1CCCCC1 [Compound 1-990] | 40% | 0% | 60% | 50% | 100% | 80% | 80% | 100% | 50% | 50% | 50% | 0% | 90% | 80% | 80% | 90%
6 | COCC(C)n1oc(=O)c(Cc2ccccc2N(C(=O)Cc2ccccc2)S(=O)(=O)C(F)(F)F)c1C (stereo not shown) [Compound 1-506] | 40% | 90% | 90% | 40% | 90% | 90% | 90% | 90% | 90% | 90% | 90% | 90% | 90% | 90% | 90% | 90%
7 | CCC(C)n1oc(=O)c(Cc2ccccc2N(C(=O)c2ccccn2)S(=O)(=O)C(F)(F)F)c1C (stereo not shown) [Compound 1-528] | 40% | 90% | 90% | 40% | 90% | 90% | 90% | 90% | 90% | 90% | 90% | 90% | 90% | 90% | 90% | 90%
8 | Cc1c(Cc2ccccc2N(C(=O)OC(C)C)S(=O)(=O)C(F)(F)F)c(=O)on1C(C)c1ccccc1 (stereo not shown) [Compound 1-653] | 40% | 90% | 90% | 40% | 90% | 90% | 90% | 90% | 90% | 90% | 90% | 90% | 90% | 90% | 90% | 90%
9 | Cc1c(Cc2ccccc2N(S(=O)(=O)C(F)(F)F)S(=O)(=O)C(F)(F)F)c(=O)on1Cc1ccc(F)cc1 [Compound 1-1014] | 50% | 40% | 70% | 40% | 80% | 80% | 90% | 90% | 40% | 70% | 90% | 40% | 90% | 100% | 90% | 90%
10 | CCC(C)n1oc(=O)c(Cc2ccccc2N(C(=O)OCC2CCCO2)S(=O)(=O)C(F)(F)F)c1C (stereo not shown) [Compound 1-829] | 40% | 90% | 90% | 40% | 90% | 90% | 90% | 90% | 90% | 90% | 90% | 90% | 90% | 90% | 90% | 90%
